Results reported in the NIST ThermoML archive (doi:10.1021/je900478c).
± gives the expanded uncertainty stated by the source.

How the values were obtained:
[1] = 101 kPa, Liquid; for viscosity: Capillary tube (Ostwald / Ubbelohde) method
[2] = refractive index (Na D-line) (dimensionless); settings: 101.33 kPa, Liquid, Standard Abbe refractometry
[3] = xn = mol fraction of the nth substance listed; settings: 101 kPa, Liquid, x2 = 0; for viscosity: Capillary tube (Ostwald / Ubbelohde) method
[4] = refractive index (Na D-line) (dimensionless); xn = mol fraction of the nth substance listed; settings: 101 kPa, Liquid, Standard Abbe refractometry, x2 = 0
[5] = 283.15 K, Vibrating tube method
[6] = 323.15 K, Vibrating tube method

Structure (SMILES)	mass density ([1]; 283.15 K) [kg/m3]	mass density ([1]; 293.15 K) [kg/m3]	mass density ([1]; 303.15 K) [kg/m3]	mass density ([1]; 313.15 K) [kg/m3]	refractive index ([2]; 283.15 K)	refractive index ([2]; 293.15 K)	refractive index ([2]; 303.15 K)	refractive index ([2]; 313.15 K)	refractive index ([2]; 323.15 K)	viscosity ([1]; 283.15 K) [mPa·s]	viscosity ([1]; 293.15 K) [mPa·s]	viscosity ([1]; 303.15 K) [mPa·s]	viscosity ([1]; 313.15 K) [mPa·s]	viscosity ([1]; 323.15 K) [mPa·s]	mass density ([3]; 283.15 K) [kg/m3]	refractive index ([4]; 283.15 K)	refractive index ([4]; 293.15 K)	refractive index ([4]; 303.15 K)	refractive index ([4]; 313.15 K)	refractive index ([4]; 323.15 K)	other results
CCCCCCOCCOCCO [2-(2-hexyloxyethoxy)ethanol]	942.09 ± 0.26	934.06 ± 0.27	926.08 ± 0.28	918.17 ± 0.29																	mass density ([1]; 288.15 K): 938.05 ± 0.26 kg/m3
CCCCOCCO [2-butoxyethan-1-ol]	909.49 ± 0.43	901.18 ± 0.44	892.68 ± 0.45	884.21 ± 0.46	1.4226 ± 0.00054	1.4196 ± 0.00056	1.4157 ± 0.00061	1.41139 ± 0.00062	1.40701 ± 0.00063	4.46 ± 0.049	3.288 ± 0.037	2.499 ± 0.028	1.946 ± 0.021	1.543 ± 0.017							mass density ([1]; 323.15 K): 875.6 ± 0.47 kg/m3
CCCCOCCOCCO [3,6-dioxa-1-decanol]					1.4347 ± 0.00057	1.4312 ± 0.00056	1.42805 ± 0.00057	1.424 ± 0.00062	1.4194 ± 0.00064	8.301 ± 0.092	5.86 ± 0.069	4.323 ± 0.049	3.295 ± 0.036	2.58 ± 0.029							mass density [1, 5]: 962.57 ± 0.23 kg/m3; mass density ([1]; 293.15 K, Vibrating tube method): 954.16 ± 0.23 kg/m3; mass density ([1]; 303.15 K, Vibrating tube method): 945.74 ± 0.23 kg/m3; mass density ([1]; 313.15 K, Vibrating tube method): 937.35 ± 0.23 kg/m3; mass density [1, 6]: 928.85 ± 0.23 kg/m3
O [water] + CCCCCCOCCOCCO															999.7 ± 0.12						
O [water] + CCCCOCCO															999.7 ± 0.12	1.33369 ± 0.00041	1.33299 ± 0.00041	1.33194 ± 0.00042	1.33061 ± 0.00043	1.32904 ± 0.00043	viscosity ([3]; 283.15 K): 1.309 ± 0.013 mPa·s; viscosity ([3]; 293.15 K): 1.003 ± 0.01 mPa·s; viscosity ([3]; 303.15 K): 0.7983 ± 0.0078 mPa·s; viscosity ([3]; 313.15 K): 0.6543 ± 0.0064 mPa·s; viscosity ([3]; 323.15 K): 0.5492 ± 0.0054 mPa·s; mass density ([3]; 323.15 K): 988.04 ± 0.14 kg/m3
O [water] + CCCCOCCOCCO																1.33369 ± 0.00041	1.33299 ± 0.00041	1.33194 ± 0.00042	1.33061 ± 0.00043	1.32904 ± 0.00043	viscosity ([3]; 283.15 K): 1.309 ± 0.013 mPa·s; mass density [3, 5]: 999.7 ± 0.05 kg/m3; viscosity ([3]; 293.15 K): 1.003 ± 0.01 mPa·s; viscosity ([3]; 303.15 K): 0.7983 ± 0.0078 mPa·s; viscosity ([3]; 313.15 K): 0.6543 ± 0.0064 mPa·s; viscosity ([3]; 323.15 K): 0.5492 ± 0.0054 mPa·s; mass density [3, 6]: 988.04 ± 0.05 kg/m3
